Experimental data published in patent publication US11116771B2, “G protein-coupled receptor (GPCR) modulation by imipridones” (Oncoceutics, Inc., priority 2016, dated 2021).
In brackets after ≈: the same amount, converted by molar mass. Entries after “also recorded” stand apart in the source; their conditions may differ. Where two headings read alike, the source gives them in different places.

Experiments:
[1] = tested on: human cancer cells; assay: Viability of human cancer cells at 72 hours post-treatment; format: cell-based; details: for Relative Potency*: relative to the potency of ONC201, viability of human cancer cells at 72 hours post-treatment
[2] = tested on: Staphylococcus aureus ATCC 29213; assay: MIC by micro-broth dilution, S. aureus ATCC 29213; format: cell-based
[3] = tested on: Staphylococcus aureus ATCC 33591; assay: MIC by micro-broth dilution, S. aureus ATCC 33591; format: cell-based
[4] = tested on: Staphylococcus aureus ATCC 700699; assay: MIC by micro-broth dilution, S. aureus ATCC 700699; format: cell-based
[5] = target: DRD5 (Homo sapiens, UniProt P21918); assay: β-arrestin recruitment GPCR reporter assay, DRD5; format: cell-based; details: arrestin recruitment reporter assay
[6] = target: T1, GPR132 (Homo sapiens, UniProt Q9UNW8); assay: β-arrestin recruitment GPCR reporter assay, GPR132; format: cell-based
T1 sequence (Q9UNW8 1-380): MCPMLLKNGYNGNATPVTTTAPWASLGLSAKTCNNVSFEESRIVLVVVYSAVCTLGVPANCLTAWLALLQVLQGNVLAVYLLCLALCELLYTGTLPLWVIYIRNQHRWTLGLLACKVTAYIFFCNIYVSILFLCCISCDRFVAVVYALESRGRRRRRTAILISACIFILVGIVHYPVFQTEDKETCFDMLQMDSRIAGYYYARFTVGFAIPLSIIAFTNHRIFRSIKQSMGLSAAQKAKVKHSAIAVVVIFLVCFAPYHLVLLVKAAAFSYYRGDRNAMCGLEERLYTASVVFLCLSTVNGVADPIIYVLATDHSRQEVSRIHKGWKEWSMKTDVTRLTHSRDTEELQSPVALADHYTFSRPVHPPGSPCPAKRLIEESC

[7] = tested on: HCT116 cells; assay: Anticancer efficacy in HCT116 cells; format: cell-based, human; details: HCT116 cells
[8] = tested on: NCI60 cancer cell line panel; assay: NCI60 cancer cell line panel; format: cell-based; details: NCI60 panel (FIG. 16)
[9] = Staphylococcus aureus, ATCC29213, 24 h
[10] = Staphylococcus aureus, ATCC33591, 24 h
[11] = Staphylococcus aureus, ATCC700699, 48 h

DRD5, sequence (P21918 whole entry): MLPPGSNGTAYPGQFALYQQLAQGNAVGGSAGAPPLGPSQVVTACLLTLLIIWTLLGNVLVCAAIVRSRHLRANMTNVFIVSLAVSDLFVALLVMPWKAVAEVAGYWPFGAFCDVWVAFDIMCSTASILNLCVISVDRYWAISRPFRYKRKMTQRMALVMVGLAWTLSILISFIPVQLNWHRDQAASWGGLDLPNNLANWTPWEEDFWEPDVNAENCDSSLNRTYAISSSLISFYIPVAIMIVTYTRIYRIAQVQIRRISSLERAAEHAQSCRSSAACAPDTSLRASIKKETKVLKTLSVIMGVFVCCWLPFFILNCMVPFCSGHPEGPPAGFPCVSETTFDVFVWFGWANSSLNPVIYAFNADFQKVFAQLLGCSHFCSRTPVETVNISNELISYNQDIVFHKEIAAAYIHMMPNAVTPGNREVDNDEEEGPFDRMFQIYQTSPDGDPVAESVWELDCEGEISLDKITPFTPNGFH

## O=C1C2=C(CCN(Cc3ccccc3)C2)N2CCN=C2N1Cc1ccc(C(F)(F)F)cc1F [ONC225]
[1]
  Relative Potency*: A (A Indicates a potency increase of >2-fold of ONC201)

## O=C1C2=C(CCN(Cc3ccccc3)C2)N2CCN=C2N1Cc1cc(F)cc(F)c1 [ONC210]
[1]
  Relative Potency*: B (B Indicates potency that is within 2-fold of ONC201)

## Cc1cc(F)ccc1CN1C(=O)C2=C(CCN(Cc3ccccc3)C2)N2CCN=C12 [ONC218]
[1]
  Relative Potency*: A (A Indicates a potency increase of >2-fold of ONC201)

## Cc1ccccc1CN1C(=O)C2=C(CCN(CCc3ccccc3)C2)N2CCN=C12 [ONC209]
[1]
  Relative Potency*: B (B Indicates potency that is within 2-fold of ONC201)

## O=C1C2=C(CCNC2)N2CCN=C2N1Cc1ccc(C(F)(F)F)cc1 [ONC221]
[1]
  Relative Potency*: A (A Indicates a potency increase of >2-fold of ONC201)

## Cc1ccccc1CN1C(=O)C2=C(CCN(CCCN)C2)N2CCN=C12 [ONC216]
[1]
  Relative Potency*: B (B Indicates potency that is within 2-fold of ONC201)

## O=C1C2=C(CCN(Cc3ccccc3)C2)N2CCN=C2N1Cc1cccnc1 [ONC226]
[1]
  Relative Potency*: A (A Indicates a potency increase of >2-fold of ONC201)

## Cc1ccccc1CN1C(=O)C2=C(CCNC2)N2CCN=C12 [ONC207]
[1]
  Relative Potency*: B (B Indicates potency that is within 2-fold of ONC201)
[2]; ATCC 29213, 24 hours
  MIC95: >100 µg/mL
  MIC99: >100 µg/mL
  MIC, Visual: >100 µg/mL
[3]; ATCC 33591, 24 hours
  MIC90: >100 µg/mL
  MIC95: >100 µg/mL
  MIC99: >100 µg/mL
  MIC, Visual: >100 µg/mL
[4]; ATCC 700699 (48 hours)
  MIC90: >100 µg/mL
  MIC95: >100 µg/mL
  MIC99: >100 µg/mL
  MIC, Visual: >100 µg/mL

## O=C1C2=C(CCN(Cc3ccccc3)C2)N2CCN=C2N1CCN1CCN(Cc2ccccc2)CC1 [ONC205]
[1]
  Relative Potency*: C (C Indicates a potency decrease of >2-fold of ONC201)

## O=C1C2=C(CCN(CC(O)c3ccccc3)C2)N2CCN=C2N1Cc1ccc(C(F)(F)F)cc1 (stereo not shown) [ONC237]
[1]; Homo sapiens, cell line not stated, read-out: anticancer efficacy IC50
  IC50: 31.2 µM
[1]
  Relative Potency*: C (C Indicates a potency decrease of >2-fold of ONC201)
[5]
  GPCR activity, DRD5: DRD5 antagonist
[6]
  GPCR activity, GPR132: GPR132 agonist

## Cc1ccccc1CN1C(=O)C2=C(CCN(C)C2)N2CCN=C12 [ONC208]
[1]
  Relative Potency*: B (B Indicates potency that is within 2-fold of ONC201)

## Cc1csc(CN2CCC3=C(C2)C(=O)N(Cc2ccc(C(F)(F)F)cc2)C2=NCCN23)n1 [ONC232]
[1]
  Relative Potency*: B (B Indicates potency that is within 2-fold of ONC201)

## COc1ccc(CN2CCC3=C(C2)C(=O)N(Cc2ccc(C(F)(F)F)cc2)C2=NCCN23)cc1 [ONC229]
[1]
  Relative Potency*: B (B Indicates potency that is within 2-fold of ONC201)

## O=C1C2=C(CCN(Cc3ccccc3)C2)N2CCN=C2N1Cc1ccc(Cl)c(Cl)c1 [ONC211]
[1]
  Relative Potency*: B (B Indicates potency that is within 2-fold of ONC201)

## O=C1C2=C(CCN(Cc3ccsc3)C2)N2CCN=C2N1Cc1ccc(C(F)(F)F)cc1 [ONC236]
[1]
  Relative Potency*: A (A Indicates a potency increase of >2-fold of ONC201)
[7]
  completeness of response: better than ONC201 but not ONC212; also recorded: same as ONC212, and better than ONC201
[6]
  GPCR activity, GPR132: highly selective GPR132 agonist

## O=C1C2=C(CCN(Cc3ccccc3)C2)N2CCN=C2N1CC1CCON1 (stereo not shown) [ONC222]
[1]
  Relative Potency*: C (C Indicates a potency decrease of >2-fold of ONC201)

## O=C(CCCN1CCC2=C(C1)C(=O)N(Cc1ccc(C(F)(F)F)cc1)C1=NCCN12)c1ccc(F)cc1 [ONC230]
[1]
  Relative Potency*: A (A Indicates a potency increase of >2-fold of ONC201)

## COc1ccc(CN2C(=O)C3=C(CCN(Cc4ccccc4)C3)N3CCN=C23)cc1 [ONC220]
[1]
  Relative Potency*: A (A Indicates a potency increase of >2-fold of ONC201)

## O=C1C2=C(CCN(Cc3ccc(C(F)(F)F)cc3)C2)N2CCN=C2N1Cc1ccc(C(F)(F)F)cc1 [ONC227]
[1]
  Relative Potency*: B (B Indicates potency that is within 2-fold of ONC201)

## O=C1C2=C(CCN(Cc3cnccn3)C2)N2CCN=C2N1Cc1ccc(C(F)(F)F)cc1 [ONC233]
[1]
  Relative Potency*: B (B Indicates potency that is within 2-fold of ONC201)

## COc1cccc(OC)c1C(=O)N[C@@H]1C(=O)N2[C@@H]1SC(C)(C)[C@@H]2C(=O)O [Methicillin, reference compound]
[3]; ATCC33591, Staphylococcus aureus (ATCC 33591), methicillin resistant, read-out: MIC
  MIC: > 100 µg/mL
[3]; Staphylococcus aureus, ATCC33591, ATCC 33591, 24 hours, read-out: MIC90
  MIC90: > 100 µg/mL
[3]; Staphylococcus aureus, ATCC33591, ATCC 33591, 24 hours, read-out: MIC95
  MIC: > 100 µg/mL
[3]; Staphylococcus aureus, ATCC33591, ATCC 33591, 24 hours, read-out: MIC99
  MIC99: > 100 µg/mL
[3]; Staphylococcus aureus, ATCC33591, ATCC 33591, 24 hours, read-out: MIC, Visual
  MIC: > 100 µg/mL
[4]; ATCC700699, MDR Staphylococcus aureus (ATCC 700699), read-out: MIC
  MIC: > 100 µg/mL
[4]; Staphylococcus aureus, ATCC700699, ATCC 700699 (48 hours), read-out: MIC90
  MIC90: > 100 µg/mL
[4]; Staphylococcus aureus, ATCC700699, ATCC 700699 (48 hours), read-out: MIC95
  MIC: > 100 µg/mL
[4]; Staphylococcus aureus, ATCC700699, ATCC 700699 (48 hours), read-out: MIC99
  MIC99: > 100 µg/mL
[4]; Staphylococcus aureus, ATCC700699, ATCC 700699 (48 hours), read-out: MIC, Visual
  MIC: > 100 µg/mL

## O=C1C2=C(CCN(Cc3ccccc3)C2)N2CCN=C2N1CCN1CCOCC1 [ONC224]
[1]
  Relative Potency*: A (A Indicates a potency increase of >2-fold of ONC201)

## CN[C@H](CC(C)C)C(=O)N[C@H]1C(=O)N[C@@H](CC(N)=O)C(=O)N[C@H]2C(=O)N[C@H]3C(=O)N[C@H](C(=O)N[C@H](C(=O)O)c4cc(O)cc(O)c4-c4cc3ccc4O)[C@H](O)c3ccc(c(Cl)c3)Oc3cc2cc(c3O[C@@H]2O[C@H](CO)[C@@H](O)[C@H](O)[C@H]2O[C@H]2C[C@](C)(N)[C@H](O)[C@H](C)O2)Oc2ccc(cc2Cl)[C@H]1O [Vancomycin, reference compound]
[2]; [9]
  MIC90: 3.13 µg/mL (≈ 2.16 µM)
  MIC99: 6.25 µg/mL (≈ 4.31 µM)
[2]; Staphylococcus aureus, ATCC29213, 24 h, read-out: MIC95
  MIC: 3.13 µg/mL (≈ 2.16 µM)
[2]; Staphylococcus aureus, ATCC29213, 24 h, read-out: MIC, Visual
  MIC: 3.12 µg/mL (≈ 2.16 µM)
[3]; [10]
  MIC90: 0.39 µg/mL (≈ 0.269 µM)
  MIC99: 0.78 µg/mL (≈ 0.538 µM)
[3]; Staphylococcus aureus, ATCC33591, 24 h, read-out: MIC95
  MIC: 0.39 µg/mL (≈ 0.269 µM)
[3]; Staphylococcus aureus, ATCC33591, 24 h, read-out: MIC, Visual
  MIC: 0.391 µg/mL (≈ 0.27 µM)
[4]; [11]
  MIC90: 12.5 µg/mL (≈ 8.63 µM)
  MIC99: 25 µg/mL (≈ 17.3 µM)
[4]; Staphylococcus aureus, ATCC700699, 48 h, read-out: MIC95
  MIC: 25 µg/mL (≈ 17.3 µM)
[4]; Staphylococcus aureus, ATCC700699, 48 h, read-out: MIC, Visual
  MIC: 25 µg/mL (≈ 17.3 µM)

## O=C1C2=C(CCN(Cc3ccccc3)C2)N2CCN=C2N1Cc1ccccc1F [ONC217]
[1]
  Relative Potency*: C (C Indicates a potency decrease of >2-fold of ONC201)

## O=C1C2=C(CCN(Cc3ccccc3)C2)N2CCN=C2N1CCc1ccccc1 [ONC204]
[1]
  Relative Potency*: C (C Indicates a potency decrease of >2-fold of ONC201)

## O=C1C2=C(CCN(Cc3ccccc3)C2)N2CCN=C2N1Cc1cccs1 [ONC203]
[1]
  Relative Potency*: C (C Indicates a potency decrease of >2-fold of ONC201)
[8]
  anti-cancer efficacy across tumor types: inactive negative control

## O=C1C2=C(CCN(Cc3ccccc3)C2)N2CCN=C2N1Cc1ccc(Cl)cc1Cl [ONC219]
[1]
  Relative Potency*: A (A Indicates a potency increase of >2-fold of ONC201)

## Cc1ccc(CN2C(=O)C3=C(CCN(Cc4ccccc4)C3)N3CCN=C23)cc1 [ONC223]
[1]
  Relative Potency*: A (A Indicates a potency increase of >2-fold of ONC201)

## O=C1C2=C(CCN(Cc3ccc(F)cc3)C2)N2CCN=C2N1Cc1ccc(C(F)(F)F)cc1 [ONC228]
[1]
  Relative Potency*: A (A Indicates a potency increase of >2-fold of ONC201)

## O=C1C2=C(CCN(Cc3cccnc3)C2)N2CCN=C2N1Cc1ccc(C(F)(F)F)cc1 [ONC231]
[1]
  Relative Potency*: A (A Indicates a potency increase of >2-fold of ONC201)
